Laboratory results published in patent US9284325B2, “Spectinamides as anti-tuberculosis agents” (UNIVERSITY OF TENNESSEE RESEARCH FOUNDATION, priority 2009, dated 2016).
≈ marks a conversion by molar mass, not a printed value. Counter-ions that a name gives are not always drawn. Like-named read-outs stand apart in the source and are kept apart here.

Assays:
[1] = test system: M. tuberculosis H37Rv; test: MIC determination by microbroth dilution, anti-tuberculosis activity; type: cell-based, Mycobacterium tuberculosis; conditions: for MIC: Mycobacterium tuberculosis, H37RV, 168 h, read-out: MIC
[2] = test system: B. anthracis Sterne 34F2; test: microbe, parasite or virus in culture; type: cell-based, Bacillus anthracis; conditions: Bacillus anthracis, STERNE34F2, read-out: MIC B. anthracis 34F2
[3] = test system: Proteus vulgaris ATCC 33420; test: MIC determination by microbroth dilution; type: cell-based; conditions: ATCC33420
[4] = test system: E. coli K12; test: MIC determination by microbroth dilution; type: cell-based, Escherichia coli; conditions: Escherichia coli, K12
[5] = test system: E. faecalis ATCC 33186; test: MIC determination by microbroth dilution; type: cell-based, Enterococcus faecalis; conditions: Enterococcus faecalis, ATCC33186
[6] = test system: Strep. pneumoniae DAW27 or strain R6; test: MIC determination by microbroth dilution; type: cell-based, Streptococcus pneumoniae; conditions: Streptococcus pneumoniae; Strep. pneumoniae DAW27 or strain R6 (for 1443-1544); read-out: MIC S. pneumoniae
[7] = test system: Proteus mirabilis ATCC 25933; test: MIC determination by microbroth dilution; type: cell-based; conditions: ATCC25933
[8] = test system: Strep. pyogenes ATCC 700294; test: MIC determination by microbroth dilution; type: cell-based, Streptococcus pyogenes; conditions: Streptococcus pyogenes, ATCC700294, read-out: MIC S. pyogenes
[9] = Cytotoxicity, MTT cell proliferation assay; conditions: African green monkey, Vero epithelial cells (ATCC CCL-81)
[10] = test system: Vero epithelial cells; conditions: African green monkey
[11] = test system: E. coli K12 ΔtolC; test: microbe, parasite or virus in culture; type: cell-based; conditions: Escherichia coli, read-out: MIC E. coli K12 ΔtolC
[12] = test system: Acinetobacter baumannii ATCC 19606; test: MIC determination by microbroth dilution; type: cell-based; conditions: ATCC19606
[13] = test system: Klebsiella pneumoniae ATCC 33495; test: MIC determination by microbroth dilution; type: cell-based; conditions: ATCC33495
[14] = test system: Borrelia burgdorferi; conditions: spirochete Borrelia burgdorferi, Criswell et al.; cited from earlier work
[15] = test system: Burkholderia cepacia ATCC 25416; test: MIC determination by microbroth dilution; type: cell-based; conditions: ATCC25416, read-out: MIC B. cepcia
[16] = test system: E. coli ribosomes; type: biochemical; conditions: for IC50, 50% inhibition of luciferase biosynthesis in S30 assay: E. coli S30 transcription/translation assay; for relative inhibitory activity on luciferase production: tested at 0.66 and 6.6 μM, FIG. 5
[17] = test system: protein synthesis in whole cell M. bovis BCG; type: cell-based
[18] = test system: P. aeruginosa PAO1; test: MIC determination by microbroth dilution; type: cell-based, Pseudomonas aeruginosa; conditions: Pseudomonas aeruginosa
[19] = test system: Strenotrophomonas maltophilia ATCC 13637; test: MIC determination by microbroth dilution; type: cell-based
[20] = test system: S. aureus 8325 or strain ATCC 29213; test: MIC determination by microbroth dilution; type: cell-based, Staphylococcus aureus; conditions: Staphylococcus aureus, ATCC29213; S. aureus 8325 or strain ATCC 29213 (for 1471-1544)
[21] = test system: Vero epithelial cells; test: Cytotoxicity, MTT cell proliferation assay; conditions: Vero IC50 / M. tuberculosis MIC

Row | SMILES | MIC [2] | MIC [3] | MIC [4] | MIC [5] | MIC [6] | MIC [7] | MIC [8] | IC50 at 72 h [9] | MIC [11] | MIC [12] | MIC [13] | MIC [15] | IC50, 50% inhibition of luciferase biosynthesis in S30 assay [16] | MIC [18] | MIC [19] | MIC [20] | MIC [1] | relative inhibitory activity on luciferase production [16] | also measured
1 | [H]/N=C(/N)N[C@H]1[C@H](O)[C@@H](O)[C@H](O[C@@H]2O[C@@H](C)[C@](O)(C=O)[C@H]2O[C@@H]2O[C@@H](CO)[C@H](O)[C@@H](O)[C@@H]2NC)[C@@H](N/C(N)=N\[H])[C@@H]1O [Streptomycin, reference compound] | 0.8 mg/L (≈ 1.38 µM) | 1.6 mg/L (≈ 2.75 µM) | 0.8 mg/L (≈ 1.38 µM) | 50 mg/L (≈ 86 µM) | 12.5 mg/L (≈ 21.5 µM) | 50 mg/L (≈ 86 µM) | 25 mg/L (≈ 43 µM) | 1540 mg/L (≈ 2640 µM) | 1.6 mg/L (≈ 2.75 µM) | > 200 mg/L | > 200 mg/L | > 200 mg/L | 0.27 mg/L | 25 mg/L (≈ 43 µM) | 3.12 mg/L (≈ 5.36 µM) | 0.4 mg/L (≈ 0.688 µM) |  |  | Activity (MIC) of 1329 compared to streptomycin [1]: 0.2; therapeutic index (IC50 divided by the MIC) [10]: 7680.5; frequency at which resistance arises [14]: ≥ 10^−7; inhibition of protein synthesis [17]: inhibited protein synthesis
2 | CC[C@@H](CO)NCCN[C@@H](CC)CO [Ethambutol] |  |  |  |  |  |  |  | 732 mg/L (≈ 3580 µM) |  |  |  |  |  |  |  |  |  |  | therapeutic index (IC50 divided by the MIC) [21]: 913.8
3 | CN[C@@H]1[C@H](O)[C@H](NC)C2O[C@]3(O)C(OC2[C@H]1O)O[C@H](C)C[C@H]3NC(=O)c1ccccn1 (stereo partly drawn) [Compound 1370, 3′-Dihydro-3′-deoxy-4(R)-pyridin-2-carboxylicamino spectinomycin Dihydrochloride] | 50 mg/L | > 200 mg/L | 200 mg/L | > 200 mg/L | > 200 mg/L | > 200 mg/L | > 200 mg/L |  | 100 mg/L | > 200 mg/L | > 200 mg/L | > 200 mg/L | 0.89 mg/L | > 200 mg/L | > 200 mg/L | > 200 mg/L | 100 mg/L | less active than 1329 | 
4 | CN[C@@H]1[C@H](O)[C@H](NC)C2O[C@]3(O)C(OC2[C@H]1O)O[C@H](C)C[C@H]3NC(=O)CNC(C)(C)C (stereo partly drawn) [Compound 1351, 3′-Dihydro-3′-deoxy-4(R)-(tert-butylamino)-acetylamino spectinomycin Dihydrochloride] | 50 mg/L | > 200 mg/L | > 200 mg/L | > 200 mg/L | 200 mg/L | > 200 mg/L | 100 mg/L |  | 50 mg/L | > 200 mg/L | 200 mg/L | > 200 mg/L | 0.22 mg/L | 200 mg/L | 50 mg/L | 200 mg/L | 25 mg/L | next most active | 
5 | CN[C@@H]1[C@H](O)[C@H](NC)C2O[C@]3(O)C(OC2[C@H]1O)O[C@H](C)C[C@H]3NCc1ccc(C)cc1 (stereo partly drawn) [Compound 1425, 3′-Dihydro-3′-deoxy-4(R)-(4-methyl)benzylamino spectinomycin Trihydrochloride] | 100 mg/L | > 200 mg/L | 200 mg/L | 100 mg/L | 100 mg/L | > 200 mg/L | 12.5 mg/L |  | 100 mg/L | > 200 mg/L | > 200 mg/L | > 200 mg/L |  | 200 mg/L | > 200 mg/L | 50 mg/L | 1000 mg/L | inhibited well | 
